Data from patent US20240150369A1, “CYCLIN-DEPENDENT KINASE INHIBITING COMPOUNDS FOR THE TREATMENT OF MEDICAL DISORDERS” (G1 Therapeutics, Inc., priority 2020, published 2024).

Columns and labels:
Assay type in all cases: biochemical
[1] = target: CDK2/Cyclin A (Homo sapiens (Human), UniProt P24941); test: CDK2/Cyclin A kinase assay (Nanosyn, Caliper microfluidic); conditions: 12-point dose-response, singlicate, at Km for ATP; ATP 50 μM; 3 hr
Procedure: (§1) Selected compounds disclosed herein were tested in kinase assays by Nanosyn (Santa Clara, CA) to determine their inhibitory effect on these CDKs. The assays were performed using microfluidic kinase detection technology (Caliper Assay Platform). The compounds were tested in 12-point dose-response format in singlicate at Km for ATP. Specifics of each assay are as described below:
CDK2/Cyclin A: Enzyme concentration: 0.1 nM; ATP concentration: 50 μM; Incubation time: 3 hr.

[2] = target: CDK2/Cyclin E (Homo sapiens (Human), UniProt P24941); test: CDK2/Cyclin E kinase assay (Nanosyn, Caliper microfluidic); conditions: 12-point dose-response, singlicate, at Km for ATP; ATP 100 μM; 3 hr
Procedure: as §1
CDK2/Cyclin E: Enzyme concentration: 0.15 nM; ATP concentration: 100 μM; Incubation time: 3 hr.

[3] = target: CDK4/Cyclin D1 (Homo sapiens (Human), UniProt P11802); test: CDK4/Cyclin D1 kinase assay (Nanosyn, Caliper microfluidic); conditions: 12-point dose-response, singlicate, at Km for ATP; ATP 200 μM; 3 hr
CDK4/Cyclin D1, sequence (P11802 whole entry): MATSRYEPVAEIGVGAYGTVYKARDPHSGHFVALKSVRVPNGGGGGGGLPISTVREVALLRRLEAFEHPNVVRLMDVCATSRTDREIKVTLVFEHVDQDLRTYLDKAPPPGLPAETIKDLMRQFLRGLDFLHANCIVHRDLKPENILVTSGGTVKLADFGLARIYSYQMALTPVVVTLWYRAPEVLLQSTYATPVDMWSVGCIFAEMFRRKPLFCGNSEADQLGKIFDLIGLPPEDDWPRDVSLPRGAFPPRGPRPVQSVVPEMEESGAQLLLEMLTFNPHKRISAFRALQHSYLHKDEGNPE
CDK4/Cyclin D1, sequence (P24385 whole entry partner): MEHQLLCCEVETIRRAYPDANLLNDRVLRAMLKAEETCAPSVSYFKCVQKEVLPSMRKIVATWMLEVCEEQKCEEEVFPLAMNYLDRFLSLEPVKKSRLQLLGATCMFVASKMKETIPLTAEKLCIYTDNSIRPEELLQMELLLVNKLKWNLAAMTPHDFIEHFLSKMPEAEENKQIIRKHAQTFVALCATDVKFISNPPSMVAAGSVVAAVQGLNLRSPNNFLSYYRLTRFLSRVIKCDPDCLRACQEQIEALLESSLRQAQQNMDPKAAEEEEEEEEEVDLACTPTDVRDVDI
Procedure: as §1
CDK4/Cyclin D1: Enzyme concentration: 1 nM; ATP concentration: 200 μM; Incubation time: 3 hr.

[4] = target: CDK6/Cyclin D3 (Homo sapiens (Human), UniProt Q00534); test: CDK6/Cyclin D3 kinase assay (Nanosyn, Caliper microfluidic); conditions: 12-point dose-response, singlicate, at Km for ATP; ATP 300 μM; 3 hr
CDK6/Cyclin D3, sequence (Q00534 whole entry): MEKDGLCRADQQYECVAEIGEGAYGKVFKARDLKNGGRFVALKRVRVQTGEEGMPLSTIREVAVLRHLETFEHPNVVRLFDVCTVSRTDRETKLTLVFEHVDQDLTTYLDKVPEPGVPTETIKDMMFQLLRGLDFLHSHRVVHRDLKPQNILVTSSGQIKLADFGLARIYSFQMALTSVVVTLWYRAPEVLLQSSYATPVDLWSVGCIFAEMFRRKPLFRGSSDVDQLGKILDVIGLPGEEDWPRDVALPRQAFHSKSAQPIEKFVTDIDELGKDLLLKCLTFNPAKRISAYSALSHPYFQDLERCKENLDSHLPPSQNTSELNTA
CDK6/Cyclin D3, sequence (P30281 whole entry partner): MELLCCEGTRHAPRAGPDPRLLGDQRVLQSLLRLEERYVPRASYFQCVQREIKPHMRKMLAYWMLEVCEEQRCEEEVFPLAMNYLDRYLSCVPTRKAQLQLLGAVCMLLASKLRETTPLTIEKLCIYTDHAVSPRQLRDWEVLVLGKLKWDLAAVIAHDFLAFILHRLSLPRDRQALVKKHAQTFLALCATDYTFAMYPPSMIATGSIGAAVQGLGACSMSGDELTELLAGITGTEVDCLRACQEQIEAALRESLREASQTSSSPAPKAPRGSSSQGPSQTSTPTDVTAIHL
Procedure: as §1
CDK6/Cyclin D3: Enzyme concentration: 2 nM; ATP concentration: 300 μM; Incubation time: 3 hr.

[5] = target: CDK9/Cyclin T1 (Homo sapiens (Human), UniProt P50750); test: CDK9/Cyclin T1 kinase assay (Nanosyn, Caliper microfluidic); conditions: 12-point dose-response, singlicate, at Km for ATP; ATP 10 μM; 17 hr
CDK9/Cyclin T1, sequence (P50750 whole entry): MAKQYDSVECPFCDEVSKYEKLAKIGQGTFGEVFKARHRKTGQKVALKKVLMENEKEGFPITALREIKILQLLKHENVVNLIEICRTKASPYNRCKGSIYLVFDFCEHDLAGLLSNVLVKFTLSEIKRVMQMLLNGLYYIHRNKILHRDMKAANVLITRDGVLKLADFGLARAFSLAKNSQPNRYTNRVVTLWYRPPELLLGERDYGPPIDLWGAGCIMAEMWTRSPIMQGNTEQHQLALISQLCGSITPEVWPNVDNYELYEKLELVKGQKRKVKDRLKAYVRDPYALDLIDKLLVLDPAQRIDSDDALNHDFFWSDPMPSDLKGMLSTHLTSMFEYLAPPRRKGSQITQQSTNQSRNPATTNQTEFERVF
CDK9/Cyclin T1, sequence (O60563 whole entry partner): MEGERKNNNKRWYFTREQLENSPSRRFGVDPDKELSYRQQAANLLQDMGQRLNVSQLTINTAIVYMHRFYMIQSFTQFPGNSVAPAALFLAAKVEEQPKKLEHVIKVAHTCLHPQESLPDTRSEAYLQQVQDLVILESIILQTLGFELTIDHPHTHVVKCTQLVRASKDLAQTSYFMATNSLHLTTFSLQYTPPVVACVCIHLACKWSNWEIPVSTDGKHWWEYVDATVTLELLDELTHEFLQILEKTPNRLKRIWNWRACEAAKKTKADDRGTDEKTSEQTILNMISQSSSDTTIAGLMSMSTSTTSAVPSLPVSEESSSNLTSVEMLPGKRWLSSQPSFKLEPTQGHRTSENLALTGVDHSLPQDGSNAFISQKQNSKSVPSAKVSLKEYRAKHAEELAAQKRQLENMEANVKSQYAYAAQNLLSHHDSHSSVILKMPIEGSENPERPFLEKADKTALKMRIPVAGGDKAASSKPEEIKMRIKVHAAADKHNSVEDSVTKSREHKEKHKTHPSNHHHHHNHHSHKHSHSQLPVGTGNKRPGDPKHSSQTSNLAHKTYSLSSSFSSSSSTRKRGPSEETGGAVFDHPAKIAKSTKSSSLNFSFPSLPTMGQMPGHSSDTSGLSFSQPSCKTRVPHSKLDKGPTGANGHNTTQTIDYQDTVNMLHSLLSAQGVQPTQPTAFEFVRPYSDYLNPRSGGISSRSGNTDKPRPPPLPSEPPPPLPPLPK
Procedure: as §1
CDK9/Cyclin T1: Enzyme concentration: 5 nM; ATP concentration: 10 μM; Incubation time: 17 hr.

[6] = target: CDK1/Cyclin B1 (Homo sapiens (Human), UniProt P06493); test: CDK1/Cyclin B1 kinase assay (Nanosyn, Caliper microfluidic); conditions: 12-point dose-response, singlicate, at Km for ATP; ATP 40 μM; 3 hr
CDK1/Cyclin B1, sequence (P06493 whole entry): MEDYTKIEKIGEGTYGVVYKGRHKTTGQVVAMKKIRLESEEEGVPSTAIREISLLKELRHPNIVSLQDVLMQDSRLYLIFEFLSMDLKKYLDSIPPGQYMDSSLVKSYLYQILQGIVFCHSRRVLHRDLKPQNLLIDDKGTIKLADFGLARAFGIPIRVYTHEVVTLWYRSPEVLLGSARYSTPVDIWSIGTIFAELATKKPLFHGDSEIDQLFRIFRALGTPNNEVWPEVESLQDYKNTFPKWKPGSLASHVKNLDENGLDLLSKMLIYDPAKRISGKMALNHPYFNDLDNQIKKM
CDK1/Cyclin B1, sequence (P14635 whole entry partner): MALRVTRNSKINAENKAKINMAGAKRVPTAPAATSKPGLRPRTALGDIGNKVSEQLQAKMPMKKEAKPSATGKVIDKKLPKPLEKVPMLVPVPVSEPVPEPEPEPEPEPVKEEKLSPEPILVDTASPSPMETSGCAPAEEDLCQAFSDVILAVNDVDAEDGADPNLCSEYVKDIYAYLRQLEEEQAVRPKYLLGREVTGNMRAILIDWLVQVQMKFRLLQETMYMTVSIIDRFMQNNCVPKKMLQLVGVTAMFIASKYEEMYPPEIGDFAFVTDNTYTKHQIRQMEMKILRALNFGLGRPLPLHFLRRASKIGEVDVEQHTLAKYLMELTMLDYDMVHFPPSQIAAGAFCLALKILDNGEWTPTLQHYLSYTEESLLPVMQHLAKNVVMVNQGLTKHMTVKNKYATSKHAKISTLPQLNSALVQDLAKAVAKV
Procedure: as §1
CDK1/Cyclin B1: Enzyme concentration: 0.08 nM; ATP concentration: 40 μM; Incubation time: 3 hr.

[7] = target: CDK3-CYCLIN-E (Homo sapiens (Human), UniProt Q00526); test: CDK3-Cyclin-E kinase assay (Nanosyn, Caliper microfluidic); conditions: 12-point dose-response, singlicate, at Km for ATP
Procedure: as §1, with “ATP.” for “ATP. Specifics of each assay are as described below:”

[8] = target: CDK5-p25 (Homo sapiens (Human), UniProt Q00535); test: CDK5-p25 kinase assay (Nanosyn, Caliper microfluidic); conditions: 12-point dose-response, singlicate, at Km for ATP
CDK5-p25, sequence (Q00535 whole entry): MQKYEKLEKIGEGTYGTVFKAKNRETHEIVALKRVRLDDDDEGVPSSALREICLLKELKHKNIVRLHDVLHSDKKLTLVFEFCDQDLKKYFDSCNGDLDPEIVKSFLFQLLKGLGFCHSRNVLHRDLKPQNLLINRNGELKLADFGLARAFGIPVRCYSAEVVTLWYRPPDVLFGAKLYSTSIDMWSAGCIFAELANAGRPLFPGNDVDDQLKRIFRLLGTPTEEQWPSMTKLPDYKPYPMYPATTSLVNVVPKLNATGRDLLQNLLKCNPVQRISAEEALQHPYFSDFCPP
CDK5-p25, sequence (Q15078 99-307 partner): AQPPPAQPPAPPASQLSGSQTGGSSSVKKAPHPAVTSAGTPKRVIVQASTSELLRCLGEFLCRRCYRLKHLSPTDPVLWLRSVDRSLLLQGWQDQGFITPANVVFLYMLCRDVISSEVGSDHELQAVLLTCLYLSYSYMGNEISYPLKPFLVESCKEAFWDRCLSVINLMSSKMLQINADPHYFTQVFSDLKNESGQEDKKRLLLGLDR
Procedure: as §1, with “ATP.” for “ATP. Specifics of each assay are as described below:”

[9] = target: CDK7 (Homo sapiens (Human), UniProt P50613); test: CDK7 kinase assay (Nanosyn, Caliper microfluidic); conditions: 12-point dose-response, singlicate, at Km for ATP
CDK7, sequence (P50613 whole entry): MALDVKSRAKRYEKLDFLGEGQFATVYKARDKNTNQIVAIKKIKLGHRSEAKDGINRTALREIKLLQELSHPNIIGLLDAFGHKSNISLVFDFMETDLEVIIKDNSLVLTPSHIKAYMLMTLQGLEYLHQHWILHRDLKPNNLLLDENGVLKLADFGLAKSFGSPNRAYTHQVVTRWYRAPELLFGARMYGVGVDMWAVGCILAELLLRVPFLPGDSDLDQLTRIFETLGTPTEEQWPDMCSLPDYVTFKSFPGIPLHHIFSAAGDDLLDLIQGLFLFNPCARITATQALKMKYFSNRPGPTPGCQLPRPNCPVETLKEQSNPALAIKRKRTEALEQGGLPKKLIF
CDK7, sequence (P51946 whole entry partner): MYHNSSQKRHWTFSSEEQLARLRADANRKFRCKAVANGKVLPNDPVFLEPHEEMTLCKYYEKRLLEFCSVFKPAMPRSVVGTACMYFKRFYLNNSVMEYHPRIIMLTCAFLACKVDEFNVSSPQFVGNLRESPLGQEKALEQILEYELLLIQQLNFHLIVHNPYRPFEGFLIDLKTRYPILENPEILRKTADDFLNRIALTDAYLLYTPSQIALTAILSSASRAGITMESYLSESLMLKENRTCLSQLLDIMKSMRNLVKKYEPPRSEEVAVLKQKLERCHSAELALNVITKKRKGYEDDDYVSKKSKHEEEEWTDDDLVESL
CDK7, sequence (P51948 whole entry partner): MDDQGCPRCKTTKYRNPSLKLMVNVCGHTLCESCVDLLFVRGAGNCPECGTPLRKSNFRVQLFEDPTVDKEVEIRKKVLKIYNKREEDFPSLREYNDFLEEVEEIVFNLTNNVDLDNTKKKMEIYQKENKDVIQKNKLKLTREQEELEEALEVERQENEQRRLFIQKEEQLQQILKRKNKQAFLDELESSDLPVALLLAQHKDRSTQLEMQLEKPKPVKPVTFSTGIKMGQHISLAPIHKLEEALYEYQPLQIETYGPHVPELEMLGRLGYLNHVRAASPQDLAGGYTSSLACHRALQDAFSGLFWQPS
Procedure: as §1, with “ATP.” for “ATP. Specifics of each assay are as described below:”

Row | SMILES | IC50 [1] [µM] | IC50 [2] [µM] | IC50 [3] [µM] | IC50 [4] [µM] | IC50 [5] [µM] | IC50 [6] [µM] | IC50 [7] [µM] | IC50 [8] [µM] | IC50 [9] [µM]
1 | C[C@@H]1NC(=O)C2(CCCCC2)n2c1cc1cnc(Nc3ccc(S(N)(=O)=O)cc3)nc12 [Compound 19, (S)-4-((6′-methyl-8′-oxo-7′,8′-dihydro-6′H-spiro[cyclohexane-1,9′-pyrazino[1′,2′:1,5]pyrrolo[2,3-d]pyrimidin]-2′-yl)amino)benzenesulfonamide] | 0.0043 | 0.0048 | 0.04 | 0.21 | 0.022 | 0.04 | 0.034 | 0.062 | 0.8
2 | CN1NC(=O)C2(CCCCC2)n2c1cc1cnc(Nc3ccc(S(N)(=O)=O)cc3)nc12 [Compound 12, 4-((1′-methyl-3′-oxo-2′,3′-dihydro-1′H-spiro[cyclohexane-1,4′-pyrimido[5′,4′:4,5]pyrrolo[2,1-c][1,2,4]triazin]-7′-yl)amino)benzenesulfonamide] | 0.0092 | 0.013 | 0.028 | 0.16 | 0.18 | 0.088 | 0.059 | 0.14 | > 1
3 | NS(=O)(=O)c1ccc(Nc2ncc3cc4n(c3n2)C2(CCCCC2)C(=O)NN4)cc1 [Compound 3, 4-((3′-oxo-2′,3′-dihydro-1′H-spiro[cyclohexane-1,4′-pyrimido[5′,4′:4,5]pyrrolo[2,1-c][1,2,4]triazin]-7′-yl)amino)benzenesulfonamide] | 0.0025 | 0.00056 | 0.13 | 0.35 | 0.062 | 0.033 | 0.0099 | 0.014 | > 1
4 | CN(C)C(=O)c1ccc(Nc2ncc3cc4n(c3n2)C2(CCCCC2)C(=O)NN4)cc1 [Compound 62, N,N-dimethyl-4-((3′-oxo-2′,3′-dihydro-1′H-spiro[cyclohexane-1,4′-pyrimido[5′,4′:4,5]pyrrolo[2,1-c][1,2,4]triazin]-7′-yl)amino)benzamide] | 0.061 | 0.014 | 0.082 | 0.216 | 0.398 | 0.727 | 0.187 |  | > 1

These reach a lower IC50 [1]. Values come first.

Row | IC50 [1] [µM] | IC50 [2] [µM] | IC50 [3] [µM] | IC50 [4] [µM] | IC50 [5] [µM] | IC50 [6] [µM] | IC50 [7] [µM] | IC50 [8] [µM] | IC50 [9] [µM] | SMILES
5 | 0.0017 | 0.0027 | 0.033 | 0.15 | 0.01 | 0.02 | 0.018 | 0.017 | 0.84 | NS(=O)(=O)c1ccc(Nc2ncc3cc4n(c3n2)C2(CCCCC2)C(=O)N[C@H]4CF)cc1 [Compound 18, (R)-4-((6′-(fluoromethyl)-8′-oxo-7′,8′-dihydro-6′H-spiro[cyclohexane-1,9′-pyrazino[1′,2′:1,5]pyrrolo[2,3-d]pyrimidin]-2′-yl)amino)benzenesulfonamide]
6 | 0.0004 | 0.0005 | 0.041 | 0.098 | 0.0045 | 0.0037 | 0.0028 | 0.0013 | 0.2 | NS(=O)(=O)c1ccc(Nc2ncc3cc4n(c3n2)C2(CCCCC2)CC(=O)N4)cc1 [Compound 2, 4-((7′-oxo-7′,8′-dihydro-6′H-spiro[cyclohexane-1,9′-pyrrolo[1,5-a:2,3-d′]dipyrimidin]-2′-yl)amino)benzenesulfonamide]
7 | 0.00016 | 0.00034 | 0.0031 | 0.0075 | 0.0014 | 0.0022 | 0.00094 | 0.0008 | 0.56 | NS(=O)(=O)c1ccc(Nc2ncc3cc4n(c3n2)C2(CCCCC2)C(=O)NC4O)cc1 (centres unmarked) [Compound 1, 4-((6′-hydroxy-8′-oxo-7′,8′-dihydro-6′H-spiro[cyclohexane-1,9′-pyrazino[1′,2′:1,5]pyrrolo[2,3-d]pyrimidin]-2'-yl)amino)benzenesulfonamide]
